Paper PMC11255275, “Structural insights into the triple agonism at GLP-1R, GIPR and GCGR manifested by retatrutide” (Cell Discovery, 2024)
pEC50: −log10 of the molar value.

Legend:
GIPR [1] = molecular target: T1, GIPR (Homo sapiens, UniProt P48546); assay: cAMP accumulation, wild-type GIPR; assay type: cell-based; conditions: HEK-293T, 40 min, TR-FRET, mean ± S.E.M.
T1 construct: expressed in transfected cells; host or cells: HEK-293T
Procedure: (§1) HEK-293T cells were maintained at 37°C in 5% CO2 incubator and seeded onto 6-well cell […]
(§2) culture plates before transfection. After overnight culture, the cells were transiently transfected […]
(§3) with various constructs using Lipofectamine 2000 transfection reagent (Invitrogen). After 24 h, […]
(§4) the transfected cells were seeded onto 384-microtiter plates at a density of 3,000 cells per well […]
(§5) in stimulation buffer (HBSS supplemented with 5 mM HEPES, 0.1% (w/v) casein and 0.5 mM […]
(§6) 3-isobutyl-1-methylxanthine). Different concentrations of retatrutide in stimulation buffer were […]
(§7) added, and the stimulation lasted for 40 min. The reaction was stopped by addition of cAMP […]
(§8) detection buffer containing Eu-cAMP tracer and ULight-anti-cAMP. Plates were then incubated for […]
(§9) 60 min at RT. Time-resolved FRET signals were measured at 620 nm and 665 nm, respectively, by […]
(§10) an EnVision multilabel plate reader (PerkinElmer). Data were analyzed in GraphPad PRISM 9.5 […]
(§11) and all values were normalized to that of the wild-type (WT). […]
(§12) accumulation was measured in wild-type (WT) and single-point mutated GLP-1R, GIPR or […]
(§13) of the WT and dose-response curves were analyzed using a three-parameter logistic equation. […]
(§14) curves were analyzed using a three-parameter logistic equation to obtain pEC50 and Emax values. […]
(§15) way ANOVA was used to determine statistical difference. N.D., values that could not be determined due […]

GLP-1R [2] = molecular target: T2, GLP-1R (Homo sapiens, UniProt P43220); assay: cAMP accumulation, wild-type GLP-1R; assay type: cell-based; conditions: GLP-1R WT, HEK-293T, TR-FRET, mean ± S.E.M.
T2 construct: expressed in transfected cells; host or cells: HEK-293T
T2 sequence (P43220 24-463): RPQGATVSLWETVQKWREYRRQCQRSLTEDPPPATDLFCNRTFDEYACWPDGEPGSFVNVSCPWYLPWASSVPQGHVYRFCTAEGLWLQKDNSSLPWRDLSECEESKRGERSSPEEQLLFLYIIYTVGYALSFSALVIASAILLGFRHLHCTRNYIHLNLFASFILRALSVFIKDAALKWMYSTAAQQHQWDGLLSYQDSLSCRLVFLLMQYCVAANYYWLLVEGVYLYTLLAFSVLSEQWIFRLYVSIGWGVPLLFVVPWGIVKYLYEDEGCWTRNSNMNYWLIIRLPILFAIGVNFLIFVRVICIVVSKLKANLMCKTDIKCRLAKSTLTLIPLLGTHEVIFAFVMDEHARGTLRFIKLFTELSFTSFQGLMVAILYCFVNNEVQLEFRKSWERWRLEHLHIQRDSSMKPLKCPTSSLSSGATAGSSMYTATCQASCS
Procedure: as §1, §2, §3, §4, §5, §6, §7, §8, §9, §10, §11, §12, §13, §14, §15

GCGR mutants [3] = molecular target: T3, GCGR mutants (Homo sapiens, UniProt P47871, D385A); assay: cAMP accumulation, single-point mutated GCGR; assay type: cell-based; conditions: GCGR D385(7.42b)A, HEK-293T, 40 min, TR-FRET, mean ± S.E.M., n at least 3
T3 construct: expressed in transfected cells; host or cells: HEK-293T
T3 sequence (P47871 26-477 D385A): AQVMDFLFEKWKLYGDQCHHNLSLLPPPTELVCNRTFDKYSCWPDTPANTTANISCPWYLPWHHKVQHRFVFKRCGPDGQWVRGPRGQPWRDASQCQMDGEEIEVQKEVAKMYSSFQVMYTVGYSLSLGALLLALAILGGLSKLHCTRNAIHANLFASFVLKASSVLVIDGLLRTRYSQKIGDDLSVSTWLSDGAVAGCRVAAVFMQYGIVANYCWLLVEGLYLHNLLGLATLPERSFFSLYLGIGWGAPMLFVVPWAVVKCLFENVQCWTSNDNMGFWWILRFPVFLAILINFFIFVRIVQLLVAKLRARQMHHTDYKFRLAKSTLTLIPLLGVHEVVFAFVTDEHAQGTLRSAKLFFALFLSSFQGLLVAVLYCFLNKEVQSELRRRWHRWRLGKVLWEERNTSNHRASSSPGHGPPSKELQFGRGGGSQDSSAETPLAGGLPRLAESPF
Procedure: as §1, §2, §3, §4, §5, §6, §7, §8, §9, §10
(§16) and all values were normalized to that of the wild-type (WT).
(§17) Supplementary Fig. 5 Effects of receptor mutation on retatrutide-induced cAMP […]
(§18) accumulation. a-c, Signaling profiles of GLP-1R (a), GIPR (b) and GCGR (c) mutants. cAMP […]
as §12
(§19) GCGR expressing HEK-293T cells. cAMP levels were normalized to the maximum response […]
(§20) of the WT and dose-response curves were analyzed using a three-parameter logistic equation.
(§21) Data were generated and graphed as means ± S.E.M. of at least three independent experiments performed in quadruplicate.
(§22) (1 picture or pasted object on this page, not shown here)
(§23) Supplementary Ta b l e S 5 Effects of the ligand-binding pocket residue mutation on retatrutide- […]
(§24) induced cAMP signaling at GLP-1R, GIPR or GCGR. […]
(§25) cAMP levels were normalized to the maximum response of the wild-type (WT) and dose-response […]
(§26) curves were analyzed using a three-parameter logistic equation to obtain pEC50 and Emax values. The […]
(§27) experiments were carried out independently at least three times. Data shown are means ± S.E.M. One- […]
as §15
(§28) to incomplete curve fits. *P< 0.05, **P< 0.01, ***P< 0.001 and ****P<0.0001.

GCGR mutants [4] = assay: cAMP accumulation, single-point mutated GCGR; assay type: cell-based, human; conditions: relative to WT
Procedure: as §1, §2, §3, §4, §5, §6, §7, §8, §9, §10, §16, §17, §18, §12, §19, §20, §21, §22, §23, §24, §25, §26, §27, §15, §28

GCGR mutants [5] = molecular target: T4, GCGR mutants (Homo sapiens, UniProt P47871, K205A); assay: cAMP accumulation, single-point mutated GCGR; assay type: cell-based; conditions: GCGR K205(ECL1)A; HEK-293T, 40 min, TR-FRET; mean ± S.E.M., n at least 3
T4 construct: expressed in transfected cells; host or cells: HEK-293T
T4 sequence (P47871 26-477 K205A): as the sequence (P47871 26-477 D385A) above, with K180A, A360D counted along it
Procedure: as §1, §2, §3, §4, §5, §6, §7, §8, §9, §10, §16, §17, §18, §12, §19, §20, §21, §22, §23, §24, §25, §26, §27, §15, §28

GCGR mutants [6] = molecular target: T5, GCGR mutants (Homo sapiens, UniProt P47871, Y138A); assay: cAMP accumulation, single-point mutated GCGR; assay type: cell-based; conditions: GCGR Y138(1.36b)A, HEK-293T, 40 min, TR-FRET, mean ± S.E.M., n at least 3
T5 construct: expressed in transfected cells; host or cells: HEK-293T
T5 sequence (P47871 26-477 Y138A): as the sequence (P47871 26-477 D385A) above, with Y113A, A360D counted along it
Procedure: as §1, §2, §3, §4, §5, §6, §7, §8, §9, §10, §16, §17, §18, §12, §19, §20, §21, §22, §23, §24, §25, §26, §27, §15, §28

GCGR mutants [7] = molecular target: T6, GCGR mutants (Homo sapiens, UniProt P47871, Y138L); assay: cAMP accumulation, single-point mutated GCGR; assay type: cell-based; conditions: GCGR Y138(1.36b)L, HEK-293T, 40 min, TR-FRET, mean ± S.E.M., n at least 3
T6 construct: expressed in transfected cells; host or cells: HEK-293T
T6 sequence (P47871 26-477 Y138L): as the sequence (P47871 26-477 D385A) above, with Y113L, A360D counted along it
Procedure: as §1, §2, §3, §4, §5, §6, §7, §8, §9, §10, §16, §17, §18, §12, §19, §20, §21, §22, §23, §24, §25, §26, §27, §15, §28

GCGR mutants [8] = molecular target: T7, GCGR mutants (Homo sapiens, UniProt P47871, W215A); assay: cAMP accumulation, single-point mutated GCGR; assay type: cell-based; conditions: GCGR W215(ECL1)A, HEK-293T, 40 min, TR-FRET, mean ± S.E.M., n at least 3
T7 construct: expressed in transfected cells; host or cells: HEK-293T
T7 sequence (P47871 26-477 W215A): as the sequence (P47871 26-477 D385A) above, with W190A, A360D counted along it
Procedure: as §1, §2, §3, §4, §5, §6, §7, §8, §9, §10, §16, §17, §18, §12, §19, §20, §21, §22, §23, §24, §25, §26, §27, §15, §28

GCGR mutants [9] = molecular target: T8, GCGR mutants (Homo sapiens, UniProt P47871, S297A); assay: cAMP accumulation, single-point mutated GCGR; assay type: cell-based; conditions: GCGR S297(ECL2)A; HEK-293T, 40 min, TR-FRET; mean ± S.E.M., n at least 3
T8 construct: expressed in transfected cells; host or cells: HEK-293T
T8 sequence (P47871 26-477 S297A): as the sequence (P47871 26-477 D385A) above, with S272A, A360D counted along it
Procedure: as §1, §2, §3, §4, §5, §6, §7, §8, §9, §10, §16, §17, §18, §12, §19, §20, §21, §22, §23, §24, §25, §26, §27, §15, §28

GCGR mutants [10] = molecular target: T9, GCGR mutants (Homo sapiens, UniProt P47871, Y202A); assay: cAMP accumulation, single-point mutated GCGR; assay type: cell-based; conditions: GCGR Y202(2.75b)A, HEK-293T, 40 min, TR-FRET, mean ± S.E.M., n at least 3
T9 construct: expressed in transfected cells; host or cells: HEK-293T
T9 sequence (P47871 26-477 Y202A): as the sequence (P47871 26-477 D385A) above, with Y177A, A360D counted along it
Procedure: as §1, §2, §3, §4, §5, §6, §7, §8, §9, §10, §16, §17, §18, §12, §19, §20, §21, §22, §23, §24, §25, §26, §27, §15, §28

GCGR [11] = conditions: less potent than the endogenous hormone; cited from earlier work
Excerpt: (§29) The most successful treatments currently available include glucagon-like peptide-1 (GLP-1) receptor agonists (GLP-1RAs), exemplified by semaglutide (approved in 2017, $19.9 billion sales in 2023)[3] and tirzepatide (approved in 2022, $5.3 billion sales in 2023)[4].

GLP-1R [12] = conditions: GLP-1R, less potent than the endogenous hormone, factor; cited from earlier work
Excerpt: as §29

GIPR [13] = conditions: GIPR, more potent than the endogenous hormone by this factor; cited from earlier work
Excerpt: as §29

GCGR [14] = molecular target: T10, GCGR (Homo sapiens, UniProt P47871); assay: cAMP accumulation, wild-type GCGR; assay type: cell-based; conditions: HEK-293T, 40 min, TR-FRET, mean ± S.E.M.
T10 construct: expressed in transfected cells; host or cells: HEK-293T
T10 sequence (P47871 26-477): as the sequence (P47871 26-477 D385A) above, with A360D counted along it
Procedure: as §1, §2, §3, §4, §5, §6, §7, §8, §9, §10, §11, §12, §13, §14, §15

T1 sequence (P48546 22-466): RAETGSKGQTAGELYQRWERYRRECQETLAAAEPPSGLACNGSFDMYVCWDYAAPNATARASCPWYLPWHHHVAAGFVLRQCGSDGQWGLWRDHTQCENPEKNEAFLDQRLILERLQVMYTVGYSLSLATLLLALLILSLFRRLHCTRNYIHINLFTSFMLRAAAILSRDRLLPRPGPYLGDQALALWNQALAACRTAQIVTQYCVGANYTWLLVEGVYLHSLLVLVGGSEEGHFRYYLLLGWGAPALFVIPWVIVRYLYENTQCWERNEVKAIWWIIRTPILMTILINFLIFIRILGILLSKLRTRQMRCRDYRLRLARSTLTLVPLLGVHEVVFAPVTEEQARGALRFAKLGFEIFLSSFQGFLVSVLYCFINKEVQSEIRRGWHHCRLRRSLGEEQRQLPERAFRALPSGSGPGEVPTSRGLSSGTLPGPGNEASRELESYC

Structure (SMILES): CC[C@H](C)[C@H](NC(=O)[C@H](Cc1ccccc1)NC(=O)[C@H](C)NC(=O)C(C)(C)NC(=O)[C@H](CCC(N)=O)NC(=O)[C@H](C)NC(=O)[C@H](CCCCNC(=O)COCCOCCNC(=O)CC[C@H](NC(=O)CCCCCCCCCCCCCCCCCCC(=O)O)C(=O)O)NC(=O)[C@H](CCCCN)NC(=O)[C@H](CC(=O)O)NC(=O)[C@H](CC(C)C)NC(=O)[C@](C)(CC(C)C)NC(=O)[C@@H](NC(=O)[C@H](CO)NC(=O)[C@H](Cc1ccc(O)cc1)NC(=O)[C@H](CC(=O)O)NC(=O)[C@H](CO)NC(=O)[C@@H](NC(=O)[C@H](Cc1ccccc1)NC(=O)[C@@H](NC(=O)CNC(=O)[C@H](CCC(N)=O)NC(=O)C(C)(C)NC(=O)[C@@H](N)Cc1ccc(O)cc1)[C@@H](C)O)[C@@H](C)O)[C@@H](C)CC)C(=O)N[C@@H](CCC(=O)O)C(=O)N[C@@H](Cc1ccc(O)cc1)C(=O)N[C@@H](CC(C)C)C(=O)N[C@@H](CC(C)C)C(=O)N[C@@H](CCC(=O)O)C(=O)NCC(=O)NCC(=O)N1CCC[C@H]1C(=O)N[C@@H](CO)C(=O)N[C@@H](CO)C(=O)NCC(=O)N[C@@H](C)C(=O)N1CCC[C@H]1C(=O)N1CCC[C@H]1C(=O)N1CCC[C@H]1C(=O)N[C@@H](CO)C(N)=O [retatrutide]
- pEC50 (GIPR [1]; GIPR WT, at least 3 independent experiments in quadruplicate): 11.64
- Emax ± S.E.M. (% WT) (GIPR [1]; n at least 3): 100.00 ± 2.84 % WT
- Emax ± S.E.M. (% WT) (GLP-1R [2]; 40 min, n at least 3): 100.00 ± 2.75 % WT
- pEC50 (GLP-1R [2]; 40 min stimulation, at least 3 independent experiments in quadruplicate): 11.05
- Emax ± S.E.M. (% WT) (GCGR mutants [3]): 100.58 ± 1.33 % WT
- pEC50 (GCGR mutants [3]; ****P < 0.0001): 10.32
- change of retatrutide potency by mutation (GCGR mutants [4]; GCGR S297(ECL2)A): slightly increased
- decrease of cAMP signaling potency by mutation (GCGR mutants [4]; GCGR Y138(1.36b)A): 26.9 fold
- change of cAMP signaling potency by mutation (GCGR mutants [4]; GCGR Y138(1.36b)L): moderately increased
- pEC50 (GCGR mutants [5]): 11.03
- Emax ± S.E.M. (% WT) (GCGR mutants [5]): 100.00 ± 2.06 % WT
- Emax ± S.E.M. (% WT) (GCGR mutants [6]): 101.28 ± 2.08 % WT
- pEC50 (GCGR mutants [6]; ****P < 0.0001): 9.71
- Emax ± S.E.M. (% WT) (GCGR mutants [7]): 100.64 ± 1.39 % WT
- pEC50 (GCGR mutants [7]; *P < 0.05): 11.40
- Emax ± S.E.M. (% WT) (GCGR mutants [8]): 101.34 ± 2.03 % WT
- pEC50 (GCGR mutants [8]; ****P < 0.0001): 10.18
- pEC50 (GCGR mutants [9]): 11.31
- Emax ± S.E.M. (% WT) (GCGR mutants [9]): 100.48 ± 1.34 % WT
- Emax ± S.E.M. (% WT) (GCGR mutants [10]): 100.47 ± 2.15 % WT
- pEC50 (GCGR mutants [10]; ****P < 0.0001): 9.91
- potency factor compared to endogenous hormone (GCGR [11]): 0.3
- potency factor compared to endogenous hormone (GLP-1R [12]): 0.4
- potency factor compared to endogenous hormone (GIPR [13]): 8.9
- pEC50 (GCGR [14]; GCGR WT, at least 3 independent experiments in quadruplicate): 11.15
- Emax ± S.E.M. (% WT) (GCGR [14]; n at least 3): 100.00 ± 1.46 % WT
